Data on twelve molecules can be found in patent EP4260850A1, “PHARMACEUTICAL COMPOSITION COMPRISING PTEROSIN COMPOUND AND DERIVATIVE THEREOF AS ACTIVE INGREDIENT FOR PREVENTION OR TREATMENT OF PKA-RELATED DISEASE” (GHPharm Co., Ltd., priority 2020, dated 2022).

As usually defined, the Papp is a coefficient for how fast a substance crosses the barrier. A higher Papp goes with fast passage.

Molecules are shown by their SMILES. Where two headings read alike, the source gives them in different places.

In one data set the test system is NIH3T3 cells. Put plainly: MTT assay, cytotoxicity in normal cells. Format: cell-based. The conditions noted are these: for cytotoxicity: normal cells (NIH3T3), result in words. On the procedure: (§1) NIH3T3 cells, as a mouse fibroblast cell line, and B16F10 cells, as a mouse melanoma cell line, were dispensed into a 96 well plate at 2×10^3 cells/well, and cultured in DMEM supplemented with 10% fetal bovine serum (FBS) at 5% CO2 and 37°C. Compounds (pterosin A, pterosin B, pterosin C, pterosin D, pterosin P, pterosin Z, pteroside A, pteroside B and pteroside Z) were treated at different concentrations and then cultured for 48 hours. Thereafter, MTT solution (5 mg/ml) was added to each well at a concentration of […] and incubated at 37°C for 4 hours. […] After incubation for 10 minutes, optical density was measured at 550 nm by using a Microplate Reader (Molecular Devices, Spectra Max, USA). An optical density is an index representing the number of surviving cells and is calculated by the formula below, and reproducibility was confirmed through three experiments. Cell proliferation rate (%) = OD550 (sample)/OD550; (control) × 100 [formula]
(§2) As described in the experimental method, mouse embryo fibroblast cell-line (NIH3T3) as a normal cell and Mouse melanoma cell-line (B16F10) as a cancer cell were cultured in a 96-well plate, and each compound was added to the cell medium at each concentration and cultured for 48 hours, MTT was then administered, and the optical density was measured at 550 nm by using a microplate reader. The optical density is an index representing the number of surviving cells and calculated by the following formula, and reproducibility was confirmed through three experiments. Cell proliferation rate (%) = OD550 (sample)/OD550; (control) × 100 [formula]
(§3) Then, the LD50 (Lethal Dose 50) value was calculated based on the change in cell proliferation rate.

For the next data set, the system named is B16F10 cells. Put plainly: MTT assay, cytotoxicity in cancer cells. It is filed as cell-based. Particulars: for cytotoxicity: cancer cells (B16F10), result in words. On the procedure: as §1, §2, §3
For data set [1], the system named is CREB. Put plainly: Western blot for CREB phosphorylation level in neurons. Format: cell-based. The conditions noted are these: for CREB phosphorylation: 10 µM, FIG. 2, against positive control amx; for phosphorylation of CREB: FIG. 8, compared with pterosin B. As to the method: (§4) Western blot analysis was performed by using the following method. Cells were lysed in RIPA buffer (20 mM Tris-Cl pH 7.4, 1 mM EDTA, 150 mM NaCl, 1% Triton X-100, 1 mM EGTA, 1 µM Na3VO4, 2.5 mM sodium pyrophosphate, 1 µM phenylmethylsulfonyl fluoride, 1 ug/ml leupeptin). The protein concentration was calculated by using BCA Protein Assay Reagent (BioRad, Hercules, CA, USA). Protein samples were separated by SDS-PAGE and transferred to polyvinylidene difluoride (PVDF) membranes (Millipore, Bedford, MA, USA). Membranes were incubated overnight at 4 °C with primary antibodies followed by HRP-conjugated goat anti-rabbit IgG (1:5,000; Pierce; Carlsbad, CA, USA). The used primary antibodies were actin (sigma; 1:1000), p-CREB (Cell signaling; 1:1000), tubulin (Cell signaling; 1:1000), p-PKA (Cell signaling; 1:1000), p -trk (Cell signaling; 1:1000) and BDNF (Abcam; 1:1000). All membranes were visualized by using a UVP Autochemi Darkroom Imaging System (Utra-Violet Products Ltd. UK) and Immobilon Crescendo Western HRP Substrate or Luminata Forte Western HRP Substrate (Millipore, USA).
Background: A western blot detects proteins with antibodies after separation by electrophoresis.

Data set [2] deals with CREB. Put plainly: Western blot for CREB phosphorylation level in astrocytes. Format: cell-based. Particulars: FIG. 2. As to the method: as §4
In another data set the test system is hippocampal slice. The experiment in a line: Electrophysiology in hippocampal slices (fEPSP, LTP). Further details: species or system mouse. The conditions noted are these: theta-burst stimulation, FIG. 10. On the procedure: • 1. The brain of a 4-month-old mouse was placed on an ice-cold dissection buffer, and a 300 µm-thick sagittal hippocampal slice was prepared by using a vibratome (dissection buffer: contents in mM: […], 25 NaHCO3, 5 KCl, 1.25 NaH2PO4, 0.5 CaCl2, 3.5 MgSO4, 10 D-glucose, 1.25 L-ascorbic acid and 2 Na-pyruvate bubbled with 95% O2/5% CO2). • 2. Slices were recovered at 32°C for 1 hour in normal ACSF (ACSF: mM: 125 NaCl, 2.5 KCl, 1.25 NaH2PO4, 25 NaHCO3, 10 glucose, 2.5 CaCl2 and 1.3 MgCl2 oxygen in 95% O2/5% CO2). • 3. During recording, the slices were moved to a chamber submerged in ACSF at 28°C, and ACSF saturated with 95% O2/5% CO2 was continuously perfused (2ml/min). A Micropipette for stimulation and recording was fabricated by using boron acid glass capillaries (Harvard Instruments) and a micropipette electrode puller. • 4. For input/output, paired-pulse ratio, and long-term potentiation (LTP) experiments, an ACSF-filled pipette (resistance: […]) was used to test the hippocampus. A field excitatory post-synaptic potential (fEPSP) was measured in the CA1 region. The fEPSP signal was amplified by using Multiclamp 700B (Molecular Devices) and digitized by using Digidata 1440A (Molecular Devices). […] The pair-pulse ratio was measured after giving the pair stimulation at intervals of 25, 50, 75, 100, 200, and 300 ms . • 6. […]

The next data set relates to nerve cells (Neuron). The experiment in a line: Neuron proliferation, differentiation and regeneration promoting ability (microscopy). It is filed as cell-based. Particulars: against control group, FIG. 11. As to the method:
The abilities of pterosin compounds to promote nerve cell proliferation, differentiation and regeneration were evaluated.

The nature of data set [3]: Blood-brain barrier permeability (Stirwell PAMPA sandwich, BBB-1-lipid). The conditions noted are these: for Papp at 4 h: PAMPA, pH 7.4, Pe Average. On the procedure: Progesterone was used as a positive control and ranitidine was used as a negative control: • (1) A donor buffer at pH 7.4 was dispensed to a deep well plate and mixed with a test substance. • (2) The donor buffer was dispensed into a U.V plate by 150ul per well, and the optical density was measured: blank value. • (3) The mixture was dispensed in the deep well plate into the U.V plate by 150ul per well, and then the optical density was measured: blank value. • (4) 200ul of the mixture in step 1) was dispensed into the donor plate of the Stirwell PAMPA sandwich. • (5) The membrane of the acceptor plate of the Stirwell PAMPA sandwich was coated with 5 ul of BBB-1-lipid. • (6) A brain sink buffer was dispensed into each well on the acceptor plate by 200 ul. • (7) The acceptor plate and donor plate were combined and incubated at 25°C for 4 hours. • (8) After 4 hours of incubation, the acceptor plate and donor plate were separated, and 150 µl each was transferred to a UV plate, and the optical density was measured.
(The PAMPA barrier holds no transporters, so it reflects passive diffusion.)

The mark [4] stands for this setting: Cancer cell B16F10, cultured 48 hours, MTT, OD 550 nm.
Setting [5] is: Normal cell NIH3T3, cultured 48 hours, MTT, OD 550 nm.
Where [6] appears, read: pH 7.4, 25°C, 4 hours, controls 50 µM, Pterosin D 12.5 µM.

As for `Cc1cc2c(c(C)c1CCO)C(=O)[C@H](C)C2` [Compound 2, (2R)-pterosin B], the cytotoxicity result in the data set on NIH3T3 cells and in the data set with B16F10 cells was “little cytotoxicity” each time. Moreover, the LD50 in the data set on B16F10 cells (setting [4]) is recorded as >5,000 µM. The figures for the CREB phosphorylation entry in the data set on CREB [1] and in the data set with CREB [2] were “did not increase CREB phosphorylation at all” and “no effect”, respectively.

With `Cc1cc2c(c(C)c1CCO)C(=O)C(C)(C)C2` [Compound 3, pterosin Z], the cytotoxicity entry with NIH3T3 cells and in the data set on B16F10 cells was “weak cytotoxicity” in each case. Besides, the CREB phosphorylation result is “did not increase CREB phosphorylation at all” in the data set with CREB [1] and “no effect” in the data set on CREB [2].

`Cc1c(CCO)c(CO)cc2c1C(=O)[C@@H](C)C2` [Compound 4, (2S)-pterosin P]: the LD50 in the data set on NIH3T3 cells (setting [5]) and in the data set with B16F10 cells (setting [4]) was >5,000 µM throughout. The cytotoxicity entry in the data set on NIH3T3 cells and with B16F10 cells was “little cytotoxicity” in each case. Further, the CREB phosphorylation entry in the data set with CREB [1] is “did not increase CREB phosphorylation at all”; in the data set on CREB [2], “no effect”.

Regarding `Cc1cc2c(c(C)c1CCO)C(=O)C(C)(C)[C@@H]2O` [Compound 5, (3R)-pterosin D], in the data set with NIH3T3 cells (setting [5]), the LD50 is >5,000 µM. Further, the cytotoxicity result in the data set with NIH3T3 cells is recorded as “little cytotoxicity”. In addition, in the data set on B16F10 cells (setting [4]), the LD50 is listed as >5,000 µM. Also, the cytotoxicity result in the data set on B16F10 cells is recorded as “little cytotoxicity”. In the data set with CREB [1], the CREB phosphorylation entry is reported as “significantly increased” and the “phosphorylation of CREB” value was “statistically significantly increased”. Further, the CREB phosphorylation entry with CREB [2] is listed as “no effect”. The “hippocampus mossy fiber-CA1 LTP” value with hippocampal slice was “particularly strong”. Also, the “length of nerve cells” value in the data set with nerve cells (Neuron) was “significantly longer”. Besides, in data set [3] (setting [6]), the Papp at 4 h was found to be 20.9 ×10⁻⁶ cm/s, the “Pe 1st” value is 19.74 10^-6cm/sec, the “Pe 2nd” value is 20.20 10^-6cm/sec and the “Pe 3rd” value is 22.73 10^-6cm/sec. Besides, in data set [3] (pH 7.4, controls 50 µM, Pterosin D 12.5 µM), the “BCS code, CNS +/- (spreadability to CNS)” value is “CNS+ (>10)”.

For `Cc1cc2c(c(C)c1CCO)C(=O)[C@](C)(CO)C2` [Compound 6, (2S)-pterosin A], the LD50 in the data set with NIH3T3 cells (setting [5]) is recorded as >5,000 µM. Besides, in the data set with B16F10 cells, the cytotoxicity result is given as “weak cytotoxicity only in cancer cells”. In the data set on CREB [1], the CREB phosphorylation result was “significantly increased” and the “phosphorylation of CREB” value is on record as “statistically significantly increased”. Also, the CREB phosphorylation entry in the data set on CREB [2] is recorded as “no effect”.

`Cc1cc2c(c(C)c1CCO)C(=O)[C@H](C)[C@H]2O` [Compound 7, (2R,3R)-pterosin C]: the LD50 with NIH3T3 cells (setting [5]) and in the data set with B16F10 cells (setting [4]) was >5,000 µM throughout.

As for `Cc1cc2c(c(C)c1CCO)C(=O)[C@@H](C)[C@H]2O` [Compound 8, (2S,3R)-pterosin C], the LD50 in the data set on NIH3T3 cells (setting [5]) and in the data set with B16F10 cells (setting [4]) was >5,000 µM in each case.

Consider `Cc1cc2c(c(C)c1CCO[C@@H]1O[C@H](CO)[C@@H](O)[C@H](O)[C@H]1O)C(=O)[C@H](C)C2` [Compound 9, (2R)-pteroside B], for which the LD50 with NIH3T3 cells and with B16F10 cells was >5,000 µM in each case.

Turning to `Cc1cc2c(c(C)c1CCO[C@@H]1O[C@H](CO)[C@@H](O)[C@H](O)[C@H]1O)C(=O)C(C)(C)C2` [Compound 10, pteroside Z], the LD50 in the data set on NIH3T3 cells and in the data set on B16F10 cells was >5,000 µM in each case.

`Cc1cc2c(c(C)c1CCO[C@@H]1O[C@H](CO)[C@@H](O)[C@H](O)[C@H]1O)C(=O)[C@](C)(CO)C2` [Compound 11, (2S)-pteroside A]: the LD50 with NIH3T3 cells and in the data set with B16F10 cells was >5,000 µM in each case.

As for `CC(=O)[C@H]1CC[C@H]2[C@@H]3CCC4=CC(=O)CC[C@]4(C)[C@H]3CC[C@]12C` [Progesterone, reference compound], the Papp at 4 h in data set [3] was 28.8 ×10⁻⁶ cm/s.

With `Cc1cc2c(c(C)c1CCO)C(=O)[C@@H](C)[C@@H]2O` [pterosin C], in the data set on CREB [1], the CREB phosphorylation result is “significantly increased” and the “phosphorylation of CREB” value is given as “statistically significantly increased”. In the data set with CREB [2], the CREB phosphorylation result is reported as “no effect”. In addition, the “hippocampus mossy fiber-CA1 LTP” value in the data set with hippocampal slice is given as “particularly strong”.
